According to US10017535B2, “Amphiphilic compounds with neuroprotective properties” (USTAV ORGANICKE CHEMIE A BIOCHEMIE AV CR, v.v.i., priority 2014, dated 2018):
Where two headings read alike, the source gives them in different places.

Target: T1, NR1-1a/NR2B NMDA receptor (Rattus norvegicus, UniProt P35439+Q00960)
T1 construct: expressed in transfected cells; host or cells: HEK293 cells (ATCC CRL1573)
Assay: Patch-clamp inhibition of glutamate-evoked currents at recombinant NMDA receptors in transfected HEK293 cells
Format: cell-based
Settings: for Mean % change ± SD: 1 mmol·l^−1 glutamate, −60 mV
Method: Transfected cells were identified by means of fluorescent green protein (GFP) fluorescence. Its genus was transfected together with the both receptor subunit genes.
Steroid-containing solutions were prepared from fresh solution (20 mmol·l^−1, of steroid dissolved in dimethyl sulfoxide, DMSO), which was added to the extracellular solution containing 1 mmol·l^−1 glutamic acid and 10 μmol·l^−1 of glycine. Identical concentrations of DMSO were added to all other extracellular solutions.
Current responses produced by extracellular application of glutamic acid solution (1 mmol·l^−1) were measured from the whole cell by patch-clamp technique, which is used for the study of transport of charged particles through model and also natural biological membranes. The currents were measured at membrane potential maintained at −60 mV and +60 mV.
Same amounts (0.3 μg) of cDNA coding NR1, NR2 and GFP (green fluorescent protein) (pQBI 25, Takara, Japan) were mixed with 0.9 μl of Matra-A Reagent (IBA, Göttingen, Germany) and added to confluent HEK293 cells cultivated in v 24-pit cultivating plate. After trypsination, the cells were re-suspended in Opti-MEM® I containing 1% fetal bovine serum. Subsequently, 20 mmol·l^−1 MgCl2, 1 mmol l^−1 D,L-2-amino-5-phosphonopentanoic acid, 3 mmol·l^−1 kynurenic acid was added to the mixture and cells were inoculated on the polylysine-coated glass plates having 25 mm in diameter. The following genes coding NMDA receptor subunits were used for transfection: NR1-1 a (GenBank accession No. U08261) and NR2B (GenBank accession No. M91562).
HEK293 Cultured cells were used for electrophysiological investigations with a latency of 16-40 h after transfection. Whole-cell currents were measured by patch-clamp amplifier (Axopatch 1D; Axon Instruments, Inc. Foster City, USA) after capacitance and serial resistance (<10 MΩ) compensation to 80-90%. Agonist-induced responses were filtered to 1 kHz (8-pole Bessel filter; Frequency Devices, Haverhill, USA), digitized with sampling frequency of 5 kHz and analyzed by pClamp version 9 software (Axon Instruments, USA). […] Extracellular solution (ECS) contained 160 mmol·l^−1 sodium chloride, 2.5 mmol·l^−1 potassium chloride, 10 mmol·l^−1 HEPES, 10 mmol·l^−1 glucose, 0.2 mmol·l^−1 EDTA a 0.7 mmol·l^−1 calcium chloride (pH adjusted to 7.3 by sodium hydroxide solution). Glycine was added to both testing and control solution. Moreover, bicuculline (10 μmol·l^−1) and tetrodotoxin (0.5 μmol·l^−1) was added to hippocampal cultures. Steroid-containing solutions were prepared from fresh solution (20 mmol·l^−1) of steroid dissolved in dimethyl sulfoxide (DMSO). Same concentrations of DMSO were used in all extracellular solutions. Control and experimental solutions were applied via microprocessor-controlled perfusion system with approx. rate of solution exchange in areas adjacent to cells reaching ˜10 ms.
Current responses produced by 100 μmol·l^−1 of NMDA (in the case of hipocampal neurones), or by 1 mmol·l^−1 of glutamate (on recombinant NMDA receptors) were measured at membrane potential maintained at −60 mV. […] Relative effect of steroid-induced inhibition was used for calculating IC50.

[1] = calculated from relative steroid-induced inhibition, Hill's coefficient 1.2, read-out: IC50
[2] = steroid concentration 10 μmol·l^−1
[3] = steroid concentration 3 μmol·l^−1

T1 sequence (Q00960 27-1482, other chains not shown): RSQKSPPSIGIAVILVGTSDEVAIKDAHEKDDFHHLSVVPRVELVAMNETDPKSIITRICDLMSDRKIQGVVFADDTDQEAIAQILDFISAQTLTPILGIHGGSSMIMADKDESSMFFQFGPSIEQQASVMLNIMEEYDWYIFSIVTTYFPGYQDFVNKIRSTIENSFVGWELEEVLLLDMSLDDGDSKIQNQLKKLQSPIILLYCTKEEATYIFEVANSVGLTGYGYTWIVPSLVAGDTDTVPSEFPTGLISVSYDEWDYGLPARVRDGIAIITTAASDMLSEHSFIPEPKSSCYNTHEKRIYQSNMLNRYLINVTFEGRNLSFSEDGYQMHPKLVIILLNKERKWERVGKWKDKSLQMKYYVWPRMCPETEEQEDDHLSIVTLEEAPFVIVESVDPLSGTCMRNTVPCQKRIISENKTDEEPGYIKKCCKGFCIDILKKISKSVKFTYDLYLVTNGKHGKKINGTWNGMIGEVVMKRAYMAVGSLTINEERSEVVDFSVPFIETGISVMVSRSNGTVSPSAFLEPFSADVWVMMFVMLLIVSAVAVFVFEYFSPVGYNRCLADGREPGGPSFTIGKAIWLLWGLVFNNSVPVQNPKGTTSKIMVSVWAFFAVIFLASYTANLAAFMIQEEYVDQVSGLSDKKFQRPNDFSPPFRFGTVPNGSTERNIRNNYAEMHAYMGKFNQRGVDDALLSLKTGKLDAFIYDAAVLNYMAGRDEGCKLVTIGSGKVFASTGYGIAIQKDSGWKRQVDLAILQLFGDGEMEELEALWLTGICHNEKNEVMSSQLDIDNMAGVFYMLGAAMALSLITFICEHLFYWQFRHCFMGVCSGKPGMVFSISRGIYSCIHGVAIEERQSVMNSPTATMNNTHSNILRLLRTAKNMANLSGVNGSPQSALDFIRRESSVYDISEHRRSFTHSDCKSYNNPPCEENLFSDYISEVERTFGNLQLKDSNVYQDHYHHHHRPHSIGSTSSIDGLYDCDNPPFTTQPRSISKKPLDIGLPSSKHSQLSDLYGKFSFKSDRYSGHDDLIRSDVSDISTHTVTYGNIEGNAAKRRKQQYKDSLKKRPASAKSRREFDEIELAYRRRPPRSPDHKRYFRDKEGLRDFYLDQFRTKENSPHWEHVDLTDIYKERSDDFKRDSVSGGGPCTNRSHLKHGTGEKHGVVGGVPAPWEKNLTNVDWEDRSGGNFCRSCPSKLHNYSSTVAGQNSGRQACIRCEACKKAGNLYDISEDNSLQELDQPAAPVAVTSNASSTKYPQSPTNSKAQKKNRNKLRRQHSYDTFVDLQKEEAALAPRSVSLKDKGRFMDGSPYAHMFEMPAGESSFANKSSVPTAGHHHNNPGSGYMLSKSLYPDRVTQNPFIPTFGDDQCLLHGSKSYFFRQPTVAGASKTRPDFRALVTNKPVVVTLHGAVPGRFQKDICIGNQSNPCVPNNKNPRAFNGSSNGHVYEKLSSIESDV

Molecule | IC50 [1] [nM] | Mean % change ± SD [3] [%] | further results
C/C=C1/CC[C@H]2[C@@H]3CC[C@@H]4C[C@H](NC(=O)CC(=O)O)CC[C@]4(C)[C@H]3CC[C@]12C [Compound 155, 3-(((3R,5R,8R,9S,10S,13S,14S,Z)-17-Ethylidene-10,13-dimethylhexadecahydro-1H-cyclopenta[a]phenanthren-3-yl)amino)-3-oxopropanoic acid] | – | – | IC50: 8700 nM; inhibition at 10 µM (HEK293, read-out: Mean % change ± SD): 54.4 ± 5%
Pyridinium (2S,4aR,4bR,8aS,10aS)-4a-methyltetradecahydrophenanthren-2-yl 2-sulfate [Compound 128] | 36300 | – | Mean % change ± SD (steroid concentration 50 μmol·l^−1): 58.0 ± 2.0%
Pyridinium (3R,5R,8R,9R,10S,13S,14S)-13-methylhexadecahydro-1H-cyclopenta[a]phenanthren-3-yl 3-sulfate [Compound 126] | 5400 | – | Mean % change ± SD [2]: 68.3 ± 7.4%
Pyridinium (3R,5R,8R,9S,10S,13R,14S,17R)-17-((R)-sec-butyl)-10,13-dimethylhexadecahydro-1H-cyclopenta[a]phenanthren-3-yl 3-sulfate [Compound 123] | 11700 | – | Mean % change ± SD [2]: 46.2 ± 2.3%
Pyridinium (3R,5R,8R,9S,10S,13R,14S,17R)-17-isopropyl-10,13-dimethylhexadecahydro-1H-cyclopenta[a]phenanthren-3-yl 3-sulfate [Compound 122] | 2000 | 59.6 ± 18.8 | –
Pyridinium (3R,5R,8R,9S,10S,13S,14S)-10,13-dimethyl-17-methylenehexadecahydro-1H-cyclopenta[a]phenanthren-3-yl 3-sulfate [Compound 116] | 1400 | 68.3 ± 4.3 | –
Pyridinium (3R,5R,8R,9S,10S,13S,14S,17R)-10,13-dimethyl-17-(prop-1-en-2-yl)hexadecahydro-1H-cyclopenta[a]phenanthren-3-yl 3-sulfate [Compound 121] | 400 | – | Mean % change ± SD (steroid concentration 1 μmol·l^−1): 71.7 ± 8.0%
Pyridinium (3R,5R,8S,9S,10S,13R,14R,17S)-10,17-dimethylhexadecahydro-1H-cyclopenta[a]phenanthren-3-yl 3-sulfate [Compound 119] | 700 | 81.1 ± 2.1 | –
Pyridinium (3R,5R,8S,9S,10S,13R,14S,17S)-10,13,17-trimethylhexadecahydro-1H-cyclopenta[a]phenanthren-3-yl 3-sulfate [Compound 117] | 1100 | 73.1 ± 6.7 | –
Pyridinium (3R,5R,8S,9S,10S,13R,14S,17S)-17-ethyl-10,13-dimethylhexadecahydro-1H-cyclopenta[a]phenanthren-3-yl 3-sulfate [Compound 120] | 500 | – | –
Pyridinium (3R,5R,8S,9S,10S,13S,14R,17R)-10,17-dimethylhexadecahydro-1H-cyclopenta[a]phenanthren-3-yl 3-sulfate [Compound 118] | 1500 | 68.0 ± 7.8 | –
